Patent publication EP1600504A1, “Control of transglutaminase catalyzed protein modification by selective irreversible transglutaminase inhibitors” (N-Zyme BioTec GmbH, priority 2004, dated 2005)
Peptide text beside a SMILES is read from it. * marks the point of attachment. Cbz = O=C(OCc1ccccc1)*; Acryloyl = C=CC(=O)*; ClAc = O=C(CCl)*

Experiments:
Transglutaminase [1] = experiment: Transglutaminase-catalysed labelling reaction stopped by inhibitor, SDS-PAGE fluorescence (Beispiel 1); type: biochemical; settings: Zielprotein N,N-Dimethylcasein, stopped after 2, 10 and 20 min, large excess of unbound dye present, transglutaminase only given in an image table
Protocol: (§1) Alle nachfolgend beschriebenen Experimente wurden nach dem gleichen Standardprotokoll durchgeführt. Dabei werden das jeweilige Zielprotein und das farbstofftragende amin- oder glutaminhaltige Substrat in einem geeigneten Puffer vorgelegt und für 5 Min. auf 37°C temperiert. Anschließend wird durch Zugabe von Transglutaminase die Reaktion gestartet. Nach variierenden Inkubationszeiten, durch die jeweils verschiedene Markierungsgrade erreicht werden, wird durch Zugabe eines Inhibitors die Transglutaminase vollständig und irreversibel inaktiviert (Reaktionsabbruch 1). In Kontrollexperimenten wird die Markierungsreaktion durch Abtrennung des ungebundenen, farbstofftragenden Substrates unterbrochen (Reaktionsabbruch 2). Die Abtrennung des ungebundenen Farbstoffes erfolgt unter Normaldruck über eine PD-10-Säule (Amersham Biosciences). Dieses allgemein einsetzbare Verfahren zur schnellen Abtrennung kleiner Moleküle von Makromolekülen wie Proteinen basiert auf dem Prinzip der Gelpermeationschromatographie und kann als das vorteilhafteste Verfahren zur Reaktionskontrolle nach dem Stand der Technik angesehen werden. Andere Verfahren, mit denen die weitere katalytische Markierungsreaktion abgebrochen werden könnte, sind weniger geeignet oder nicht allgemein einsetzbar (z. B. thermische, unspezifische chemische oder affinitätschromatographische Methoden). […]

Transglutaminase [2] = experiment: Transglutaminase-catalysed labelling reaction stopped by inhibitor, SDS-PAGE fluorescence (Beispiel 3); type: biochemical
Protocol: as §1

[3] = target: T1, bakterielle Transglutaminase (Streptomyces mobaraensis, UniProt P81453); experiment: Labelling of recombinant hIRS1-p30-N-K stopped by inhibitor, SDS-PAGE fluorescence (Beispiel 6); type: biochemical
T1 sequence (P81453 77-407): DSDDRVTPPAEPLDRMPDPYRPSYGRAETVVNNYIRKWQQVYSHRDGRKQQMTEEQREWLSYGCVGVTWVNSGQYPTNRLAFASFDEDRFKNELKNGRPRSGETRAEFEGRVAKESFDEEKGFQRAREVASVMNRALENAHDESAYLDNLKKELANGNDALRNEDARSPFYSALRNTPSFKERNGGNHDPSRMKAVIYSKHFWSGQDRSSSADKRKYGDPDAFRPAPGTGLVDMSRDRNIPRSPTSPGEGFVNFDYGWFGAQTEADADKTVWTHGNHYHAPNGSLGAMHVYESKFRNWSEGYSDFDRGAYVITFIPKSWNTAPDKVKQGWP
Protocol: as §1

[4] = target: T2, Meerschweinchenlebertransglutaminase (Cavia cutleri, UniProt P08587); experiment: Labelling of recombinant hLeptin stopped by inhibitor, RP-HPLC (Beispiel 7); type: biochemical, Meerschweinchen
T2 sequence (P08587 2-690 limits assumed): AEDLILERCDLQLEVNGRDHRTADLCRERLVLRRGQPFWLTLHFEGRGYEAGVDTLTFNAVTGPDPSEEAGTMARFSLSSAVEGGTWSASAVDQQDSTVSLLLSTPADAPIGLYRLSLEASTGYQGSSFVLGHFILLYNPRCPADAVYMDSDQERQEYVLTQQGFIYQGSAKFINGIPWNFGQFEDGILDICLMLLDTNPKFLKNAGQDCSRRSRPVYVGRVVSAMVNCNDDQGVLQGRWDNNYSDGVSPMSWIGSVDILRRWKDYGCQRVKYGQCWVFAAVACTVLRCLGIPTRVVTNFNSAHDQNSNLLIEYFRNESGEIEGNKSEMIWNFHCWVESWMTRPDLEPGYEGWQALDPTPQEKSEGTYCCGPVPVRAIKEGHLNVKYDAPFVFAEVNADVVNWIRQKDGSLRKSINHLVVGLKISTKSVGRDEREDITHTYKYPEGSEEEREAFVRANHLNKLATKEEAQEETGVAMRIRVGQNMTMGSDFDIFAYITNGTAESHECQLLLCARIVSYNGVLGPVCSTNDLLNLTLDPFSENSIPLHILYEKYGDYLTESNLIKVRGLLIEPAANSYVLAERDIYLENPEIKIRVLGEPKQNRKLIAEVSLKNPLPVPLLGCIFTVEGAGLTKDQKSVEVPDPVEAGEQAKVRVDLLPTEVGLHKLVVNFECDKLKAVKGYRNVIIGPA
Protocol: as §1, with “Methoden). Die Gelpermeationschromatographie wurde jeweils so schnell wie technisch machbar durchgeführt. Dazu wird auf die vorkonditionierte PD-10-Säule 2,5 ml des Reaktionsvolumens aufgetragen und die Lösung vollständig in das Trennmaterial eingebracht. Anschließend wird das Protein mit 3,5 ml Puffer eluiert. Die niedermolekularen Substanzen verbleiben auf der Säule. Der Gesamtprozess benötigt eine Zeitspanne von mindestens 3 Minuten. Während dieser Zeit kann Transglutaminase weiter auf das Zielprotein einwirken.” for “Methoden).”

[5] = target: T1, bakterielle Transglutaminase; experiment: Labelling of recombinant Concanavalin A stopped by inhibitor, SDS-PAGE fluorescence (Beispiel 4); type: biochemical; settings: rekombinantes Concanavalin A, stopped after 2 and 5 min, then 30 min RT
Protocol: as §1

Transglutaminase [6] = experiment: Transglutaminase-catalysed labelling reaction stopped by inhibitor, SDS-PAGE fluorescence (Beispiel 5); type: biochemical; settings: stopped after 2, 5 and 10 min, then 30 min RT
Protocol: as §1

## CC[C@H](C)[C@H](NC(=O)[C@H](CCC(N)=O)NC(=O)[C@H](CCC(=O)C[S+](C)C)NC(=O)OC(C)(C)C)C(=O)N[C@H](C(=O)OC)C(C)C [Boc-SON-Gln-Ile-Val-OH, N^α-tert.-Butyloxycarbonyl-L-(6-dimethylsulfonium-5-oxonorleucinyl)-L-glutaminyl-L-isoleucinyl-L-valinmethylester]
Transglutaminase [1]
  weitere katalytische Reaktion nach Zugabe des Inhibitors: Eine weitere katalytische Reaktion findet nach Zugabe des Inhibitors nicht statt

## [N-]=[N+]=CC(=O)CC[C@H](NC(=O)OCc1ccccc1)C(=O)NCC(=O)O [Z-DON-Gly-OH, N^α-Benzyloxycarbonyl-L-(6-diazo-5-oxonorleucinyl)glycin]
Transglutaminase [2]; inhibitor removed by gel permeation chromatography, fresh unbound dye added, 30 min RT
  weiteres Labeling des Zielproteins nach Abtrennung des Inhibitors: kein weiteres Labeling des Zielproteins
Transglutaminase [2]; stopped after 5 min, sample directly after inhibitor addition
  Markierungsreaktion nach Zugabe des Inhibitors: wird die Reaktion gestoppt

## COC(=O)[C@H](Cc1ccccc1)NC(=O)[C@H](CCC(=O)C=[N+]=[N-])NC(=O)OCc1ccccc1 [Z-DON-Phe-OMe, N^α-Benzyloxycarbonyl-L-(6-diazo-5-oxonorleucinyl)-L-phenylalaninmethylester]
[3]; dye and inhibitor removed, kept at RT 30 min, 1 h, 2 h, 4 h
  weitere Modifikation des Zielproteins nach Abtrennung von Farbstoff und Inhibitor: keine weitere Modifikation des Zielproteins
[3]; stopped after 5 min
  Inhibition der Transglutaminase: vollständige und irreversible Inhibition der Transglutaminase

## C=CC(=O)NCCCC[C@H](NC(=O)OCc1ccccc1)C(=O)NCC(=O)O [Z-Lys(Acryloylamid)-Gly-OH, N^α-Benzyloxycarbonyl-L-lysinyl(ε-acryloyl)glycin] (Cbz-Lys(Acryloyl)-Gly-OH)
[4]; stopped after 5 min
  Inaktivierung der Meerschweinchenlebertransglutaminase: inaktiviert Meerschweinchenlebertransglutaminase vollständig
[4]; stopped after 5 min, then 30 and 60 min RT
  weitere Labeling- und Quervernetzungsreaktionen: keine weitere Labeling- und Quervernetzungsreaktionen
[4]; storage 10 days at -20°C, then one hour RT
  weitere enzymatische Reaktionen nach Lagerung: keine weiteren enzymatischen Reaktionen mehr

## COC(=O)[C@H](Cc1ccccc1)NC(=O)[C@H](CCC(=O)C[S+](C)C)NC(=O)OCc1ccccc1 [Z-SON-Phe-OMe, Nα-Benzyloxycarbonyl-L-(6-dimethylsulfonium-5-oxonorleucinyl)phenylalaninmethylester]
[5]
  weitere Markierungsreaktion nach Inhibitorzugabe: keine weitere Markierungsreaktion mehr

## O=C(O)CNC(=O)[C@H](COC(=O)CCl)NC(=O)OCc1ccccc1 [Z-Ser(OAcCl)-Gly-OH, N^α-Benzyloxycarbonyl-L-serinyl(O-chloracetyl)glycin] (Cbz-Ser(ClAc)-Gly-OH)
Transglutaminase [6]
  weitere Markierungsreaktionen nach Inhibitorzugabe: keine weiteren Markierungsreaktionen mehr
